Measurements reported in the NIST ThermoML archive (doi:10.1016/j.jct.2014.03.021).

Assay: refractive index (Na D-line) (dimensionless); xn = mol fraction of the nth substance listed
Conditions: 101 kPa, Liquid, Standard Abbe refractometry

C[C@H](O)C(=O)[O-].C[N+](C)(C)CCO + O
refractive index
Conditions	293.15 K	298.15 K	303.15 K	308.15 K	313.15 K	318.15 K	323.15 K
x1 = 0.0258	1.36903	1.36828	1.36748	1.36732	1.36664	1.36649	1.36665
x1 = 0.0511	1.39091	1.38998	1.38899	1.38799	1.38719	1.38658	1.38756
x1 = 0.074	1.41121	1.4101	1.40897	1.4078	1.40673	1.40601	1.40547
x1 = 0.1027	1.41982	1.41868	1.41749	1.4163	1.4151	1.41389	1.41332
x1 = 0.1965	1.43901	1.43773	1.43645	1.43516	1.43386	1.43253	1.43117
x1 = 0.2957	1.45194	1.45066	1.44934	1.448	1.44669	1.44535	1.44401
x1 = 0.416	1.46075	1.4594	1.45817	1.45679	1.45543	1.45415	1.45266
x1 = 0.5184	1.46916	1.46786	1.46656	1.46532	1.46399	1.46255	1.46151
x1 = 0.5347	1.46974	1.46843	1.46709	1.46577	1.46444	1.46311	1.4618
x1 = 0.6044	1.47013	1.46887	1.46754	1.4662	1.46489	1.46346	1.46206
x1 = 0.6931	1.47355	1.4723	1.47098	1.46966	1.46835	1.46704	1.46574
x1 = 0.7801	1.47251	1.47121	1.47001	1.46842	1.46703	1.46554	1.46388
x1 = 0.8279	1.47481	1.47368	1.47226	1.47073	1.46931	1.46789	1.46631
x1 = 0.8996	1.48014	1.47898	1.47758	1.47607	1.47467	1.47331	1.47199
